Results from patent US20060167025A1, “Tricyclic amino alcohols, processes for synthesis of same and use of same as anti-inflammatory drugs” (priority 2004, published 2006).

Key:
[1] = target: T1, glucocorticoid receptor (GR) (Homo sapiens, UniProt P04150); assay: Binding to recombinant glucocorticoid receptor, reference [3H]-dexamethasone; conditions: cytosol preparations of Sf9 cells infected with recombinant baculoviruses coding for GR; [3H]-dexamethasone reference
T1 construct: made in house; host or cells: Sf9 cells infected with recombinant baculovirus (cytosol preparation)
T1 sequence (P04150 1-777): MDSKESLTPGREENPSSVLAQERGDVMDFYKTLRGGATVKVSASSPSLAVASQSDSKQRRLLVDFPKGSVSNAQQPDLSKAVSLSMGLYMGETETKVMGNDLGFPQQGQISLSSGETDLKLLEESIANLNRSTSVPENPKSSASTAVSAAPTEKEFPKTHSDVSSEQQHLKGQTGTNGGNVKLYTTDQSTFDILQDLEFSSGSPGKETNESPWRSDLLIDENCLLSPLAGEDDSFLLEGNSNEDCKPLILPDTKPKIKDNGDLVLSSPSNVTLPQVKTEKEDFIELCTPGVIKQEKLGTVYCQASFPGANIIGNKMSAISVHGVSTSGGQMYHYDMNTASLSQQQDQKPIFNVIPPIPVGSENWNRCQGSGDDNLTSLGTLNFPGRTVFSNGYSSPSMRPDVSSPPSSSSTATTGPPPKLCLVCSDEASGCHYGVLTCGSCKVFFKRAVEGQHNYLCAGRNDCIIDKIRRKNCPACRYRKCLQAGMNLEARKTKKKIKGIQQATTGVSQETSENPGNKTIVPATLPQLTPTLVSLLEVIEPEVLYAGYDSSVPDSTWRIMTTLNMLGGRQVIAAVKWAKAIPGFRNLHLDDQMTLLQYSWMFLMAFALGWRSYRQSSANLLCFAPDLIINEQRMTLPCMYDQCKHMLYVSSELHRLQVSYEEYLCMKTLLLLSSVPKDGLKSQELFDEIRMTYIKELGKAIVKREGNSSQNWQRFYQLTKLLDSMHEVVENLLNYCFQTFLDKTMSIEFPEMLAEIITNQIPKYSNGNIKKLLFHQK
Description: (§1) The binding of substances to the glucocorticoid receptor (GR) and other steroid hormone receptors (mineral corticoid receptor (MR), progesterone receptor (PR) and androgen receptor (AR)) is tested with the help of recombinant receptors. Cytosol preparations of Sf9 cells infected with recombinant baculoviruses that code for GR are used for binding tests. In comparison with the reference substance [^3H]-dexamethasone, these substances have a high affinity for GR. An IC50 (GR)=20 nM and IC50 (PR)>1 μM have been obtained for the compound from Example 2.

[2] = target: T2, progesterone receptor (PR) (Homo sapiens, UniProt P06401); assay: Binding to recombinant progesterone receptor
T2 sequence (P06401 1-933): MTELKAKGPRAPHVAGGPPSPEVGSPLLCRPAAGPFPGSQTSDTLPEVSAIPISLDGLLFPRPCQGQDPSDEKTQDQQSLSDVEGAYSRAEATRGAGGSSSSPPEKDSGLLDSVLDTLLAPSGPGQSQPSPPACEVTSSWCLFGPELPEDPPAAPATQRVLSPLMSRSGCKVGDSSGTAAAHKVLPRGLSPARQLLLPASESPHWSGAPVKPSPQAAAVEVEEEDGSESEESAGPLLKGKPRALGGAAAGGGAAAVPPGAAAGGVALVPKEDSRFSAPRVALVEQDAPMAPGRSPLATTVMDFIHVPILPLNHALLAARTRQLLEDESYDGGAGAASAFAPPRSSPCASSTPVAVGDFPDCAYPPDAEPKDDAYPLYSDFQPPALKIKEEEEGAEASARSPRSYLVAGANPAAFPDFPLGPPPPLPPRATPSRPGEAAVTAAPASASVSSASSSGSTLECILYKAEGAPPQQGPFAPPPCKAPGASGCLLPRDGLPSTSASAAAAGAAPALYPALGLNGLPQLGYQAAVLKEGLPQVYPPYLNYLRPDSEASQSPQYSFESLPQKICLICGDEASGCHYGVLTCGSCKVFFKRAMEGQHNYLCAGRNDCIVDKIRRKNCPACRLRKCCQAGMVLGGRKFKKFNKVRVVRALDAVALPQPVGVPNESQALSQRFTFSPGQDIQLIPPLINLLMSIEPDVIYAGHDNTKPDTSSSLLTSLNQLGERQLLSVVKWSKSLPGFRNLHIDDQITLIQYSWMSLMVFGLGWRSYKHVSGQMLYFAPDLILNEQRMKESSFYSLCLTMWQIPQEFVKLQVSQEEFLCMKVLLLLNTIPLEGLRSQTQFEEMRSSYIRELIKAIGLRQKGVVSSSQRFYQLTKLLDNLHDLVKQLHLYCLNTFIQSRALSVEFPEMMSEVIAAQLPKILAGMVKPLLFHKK
Description: as §1

[3] = tested on: secretion of cytokine IL-8 triggered by lipopolysaccharide (LPS) in the human monocyte cell line THP-1; assay: Inhibition of LPS-triggered IL-8 secretion in THP-1 cells (ELISA); type: cell-based
Description: The inventive compounds of general formula (I) inhibit the secretion of cytokine IL-8 triggered by lipopolysaccharide (LPS) in the human monocyte cell line THP-1. The concentration of cytokines was determined in the supernatant using commercially available ELISA kits.

Cc1ccc2c(NC3c4ccc(F)c5c4C(CCO5)CC3(O)C(F)(F)F)cccc2n1 (mixture of isomers) [Example 2, 9-Fluoro-6-[(2-methylquinolin-5-yl)amino]-5-(trifluoromethyl)-2,3,3a,4,5,6-hexahydrobenzo[de]chromen-5-ol]
IC50 [1]: 20 nM | IC50 [2]: > 1000 nM | IC50 ([3]; Homo sapiens, LPS-stimulated THP-1, IL-8 in supernatant by ELISA, read-out: IC50 (IL8)): 37 nM | efficiency with respect to [3H]-dexamethasone as the standard ([3]; IL-8 inhibition in LPS-stimulated THP-1): 70%
